Experiments:
human endothelial cells = assay: β-catenin immunofluorescent microscopy; type: cell-based; settings: HGF-stimulated cells
Description: Endothelial cell monolayers grown on gelatinized cover slips were rinsed with M199 and incubated with agonists in the same medium in a 37° C. incubator (5% CO2). Monolayers were then rinsed with PBS (3×2 min), fixed in 4% paraformaldehyde for 10 min, again rinsed with PBS (3×2 min), and permeabilized with 0.25% Triton X-100 for 5 min. Cells were then washed briefly with PBS (3×2 min), blocked with PBS containing 2% BSA for 30 min and incubated with 1 Unit/mL of Texas Red-X phalloidin (Molecular Probes, Eugene, Oreg.), β-catenin antibody (Transduction Laboratories, Lexington, Ky.), glycogen synthase kinase-3 β (GSK-3β) (Santa Cruz Biotechnology, Inc., Santa Cruz, Calif.), or mono-phosphorylated MLC antisera (see Garcia, J. G. N. et al. (2001) J. Clin. Invest. 108:689-711) for 1 hr. After washing with PBS (3×2 min), cover slips were mounted on slides using SlowFade mounting medium (Molecular Probes). Cells were analyzed using a 60× oil objective on a Nikon Eclipse TE 300 microscope. Images were captured by Sony Digital Photo camera DKC 5000. The same exposure time was applied to all samples within one experiment. […]

PKCα = PKCα activation (phospho-PKC immunoreactivity, membrane translocation); type: cell-based, human; settings: after HGF
Description: Endothelial cell monolayers grown to confluence in 12-well plates and challenged with HGF were lysed with 100 μl of 2×SDS sample buffer, and cell lysates were transferred into microcentrifuge tubes and boiled for 5 min. After a brief spin, proteins from 10 μl cell lysates were separated on 12% SDS-PAGE and transferred to nitrocellulose (Schleicher & Schuell, Keene, N.H.) (30V, 18 h). After blocking with PBST (PBS with 0.1% Tween 20) containing 5% non-fat milk for 1 hr, nitrocellulose blots were reacted with primary antibodies diluted in PBST containing 5% BSA for 1 hr, washed with PBST (3×10 min), incubated with peroxidase-conjugated secondary antibodies (goat anti-rabbit IgG, 1:10,000 dilution, Sigma; or goat anti-mouse IgG, 1:10,000 dilution, Bio-Rad Labs, Richmond, Calif.) diluted in PBST with 5% non-fat milk for 1 hr and again washed with PBST (3×10 min). Finally, immunoreactive proteins were detected using ECL. The relative intensities of the protein bands were quantified by scanning densitometry.
Endothelial cells were fractionated into cytosolic, membrane, and nuclear/cytoskeleton fractions as described in Borbiev, T. et al. (2001) Am. J. Physiol. Lung Cell. Mol. Physiol. 280:L983-L990. […]

Substance: HGF: heparin-binding glycoprotein, multifunctional cytokine, ligand of c-Met; purchased from R&D Systems
- β-catenin immunoreactivity (human endothelial cells): increased β-catenin immunoreactivity along cell borders
- time at which PKCα activation is detectable (phospho-PKC immunoreactivity) (PKCα): 15 min
- time of PKCα translocation to the membrane fraction (PKCα): 5 min

Source: patent US20050004029A1, “Methods and compositions for treating vascular leak using hepatocyte growth factor” (priority 2001, published 2005)
